Structures are written as SMILES. Starred links: 1 amine or outer side, 2 acyl side, 3 side chain; linkers in the order of their positions; H or OH if unused. Positions of bridges follow the written chain, without caps; N, C: chain ends. Residues, ends and D or L forms follow the SMILES beside them. *: point of attachment. X1 = NC(=O)[C@H](CCCCNC(=O)CCCC[C@@H]1SC[C@@H]2NC(=O)N[C@@H]21)NC(=O)CCC(=O)NCCCOCCOCCOCCCN*; mXylylene = c1cc(C[*:1])cc(C[*:2])c1

These results are taken from patent EP4455159A1, “GASTRIC INHIBITORY PEPTIDE RECEPTOR LIGANDS WITH BIO-DISTRIBUTION MODIFIER” (3B Pharmaceuticals GmbH, priority 2023, dated 2024).

This assay addresses T1, GIPR (Homo sapiens, UniProt P48546).
T1 construct: host or cells: CHO-K1
T1 sequence (P48546 22-466): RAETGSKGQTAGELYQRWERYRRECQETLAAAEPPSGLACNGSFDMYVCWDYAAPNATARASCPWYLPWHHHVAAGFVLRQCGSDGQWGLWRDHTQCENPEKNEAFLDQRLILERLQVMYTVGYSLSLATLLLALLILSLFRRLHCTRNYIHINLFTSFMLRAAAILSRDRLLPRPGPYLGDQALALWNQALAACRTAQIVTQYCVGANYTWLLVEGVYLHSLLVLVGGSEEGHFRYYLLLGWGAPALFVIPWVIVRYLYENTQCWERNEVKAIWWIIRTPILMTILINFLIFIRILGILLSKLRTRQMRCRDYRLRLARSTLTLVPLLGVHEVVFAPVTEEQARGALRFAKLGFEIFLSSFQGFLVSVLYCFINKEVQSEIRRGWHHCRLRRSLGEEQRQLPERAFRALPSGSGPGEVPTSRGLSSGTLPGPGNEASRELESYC
Briefly: FACS binding assay. The settings on record: CHO-K1-hGIPR cells, various concentrations of biotinylated compound, 4°C for 1 hour, APC-Streptavidin detection. On the procedure: In order to determine binding of compounds according to the present invention to GIPR-expressing cells, a FACS binding assay is established.
CHO-K1-hGIPR cells (GenScript Biotech, #M00486) are cultured in Ham's F12 medium (Sigma-Aldrich, #N4888) including 10% fetal calf serum (FCS), 2 mM L-glutamine, 100 U/mL penicillin, 100 µg/mL streptomycin, 200µg/mL Zeocin and 100µg/mL HygromycinB. Cells are detached with Accutase (Biolegend, #BLD-423201) and washed in FACS buffer (PBS including 1% FCS). Cells are diluted in FACS buffer to a final concentration of 500.000 cells per mL. 200 µL of the cell suspension is transferred to a u-shaped non-binding 96-well plate (Greiner) and cells are washed in ice-cold FACS buffer.
For EC50 determination, cells are incubated with various concentrations of biotinylated compound (H-Met-Tyr-Asp-Trp-Trp-Pro-Glu-Leu-[Cys(3MeBn)-Ala-Leu-Ile-Cys]-Ttds-Lys(Bio)-NH2) (SEQ ID NO: 3) at 4°C for 1 hour. […] For IC50 determination, cells are incubated with 20 nM of the biotinylated compound in the presence of increasing concentrations of non-labeled test compounds at 4°C for 1 hour. Cells are washed twice in FACS buffer. […]
Cells are analyzed in an Attune NxT flow cytometer. Median fluorescence intensities (MFI) of the APC/Cy5-channel are calculated by Attune NxT software. […]

As for `CC[C@H](C)[C@@H]1NC(=O)[C@H](CC(C)C)NC(=O)[C@H](C)NC(=O)[C@@H](NC(=O)[C@H](CC(C)C)NC(=O)[C@H](CCC(=O)O)NC(=O)[C@@H]2CCCN2C(=O)[C@H](Cc2c[nH]c3ccccc23)NC(=O)[C@H](Cc2c[nH]c3ccccc23)NC(=O)[C@H](CC(=O)O)NC(=O)[C@H](Cc2ccc(O)cc2)NC(=O)[C@@H](N)CCSC)CSCc2cccc(c2)CSC[C@@H](C(=O)NCCCOCCOCCOCCCNC(=O)CCC(=O)N[C@@H](CCCCNC(=O)CCCC[C@@H]2SC[C@@H]3NC(=O)N[C@@H]32)C(N)=O)NC1=O` [biotinylated compound, H-Met-Tyr-Asp-Trp-Trp-Pro-Glu-Leu-[Cys(3MeBn)-Ala-Leu-Ile-Cys]-Ttds-Lys(Bio)-NH2] (H-MYDWWPELCALIC-X1; linker 9-13 via mXylylene), the EC50 (in general, the concentration giving half of the maximal effect) was 3.16 nM.
